Experimental data published in the NIST ThermoML archive (doi:10.1021/je300134c).

Experiment: xn = mol fraction of the nth substance listed
Conditions: 101 kPa, Liquid; for speed of sound: Sing-around technique in a fixed-path interferometer; for mass density: Vibrating tube method

CCCCn1cc[n+](C)c1.O=S(=O)([O-])C(F)(F)F [1-butyl-3-methylimidazolium trifluoromethanesulfonate] + O
Conditions	mass density [kg/m3]	speed of sound [m/s]
288.15 K, x1 = 0.05002	1122.78	1539.5
288.15 K, x1 = 0.09974	1178.77	1524.8
288.15 K, x1 = 0.1499	1211.09	1510.4
288.15 K, x1 = 0.3013	1257.47	1474.6
288.15 K, x1 = 0.3994	1272.13	1459
288.15 K, x1 = 0.4973	1281.71	1447.6
288.15 K, x1 = 0.5999	1289.22	1438
288.15 K, x1 = 0.6988	1294.59	1431.6
288.15 K, x1 = 0.8953	1302.01	1420.5
288.15 K, x1 = 1	1304.56	1416
298.15 K, x1 = 0.05002	1116.95	1538.2
298.15 K, x1 = 0.09974	1171.65	1514.3
298.15 K, x1 = 0.1499	1203.38	1494.8
298.15 K, x1 = 0.3013	1249.32	1453.8
298.15 K, x1 = 0.3994	1263.98	1437.3
298.15 K, x1 = 0.4973	1273.59	1425.5
298.15 K, x1 = 0.5999	1281.16	1415.7
298.15 K, x1 = 0.6988	1286.57	1408.8
298.15 K, x1 = 0.8953	1294.08	1397.7
298.15 K, x1 = 1	1296.67	1393
308.15 K, x1 = 0.05002	1110.67	1533.5
308.15 K, x1 = 0.09974	1164.25	1501.6
308.15 K, x1 = 0.1499	1195.48	1477.9
308.15 K, x1 = 0.3013	1241.1	1432.7
308.15 K, x1 = 0.3994	1255.79	1415.6
308.15 K, x1 = 0.4973	1265.46	1403.5
308.15 K, x1 = 0.5999	1273.1	1393.6
308.15 K, x1 = 0.6988	1278.56	1386.5
308.15 K, x1 = 0.8953	1286.15	1375.5
308.15 K, x1 = 1	1288.78	1370.7
318.15 K, x1 = 0.05002	1103.96	1525.8
318.15 K, x1 = 0.09974	1156.58	1486.9
318.15 K, x1 = 0.1499	1187.4	1459.8
318.15 K, x1 = 0.3013	1232.82	1411.4
318.15 K, x1 = 0.3994	1247.58	1393.8
318.15 K, x1 = 0.4973	1257.33	1381.7
318.15 K, x1 = 0.5999	1265.05	1371.7
318.15 K, x1 = 0.6988	1270.58	1364.7
318.15 K, x1 = 0.8953	1278.27	1353.8
318.15 K, x1 = 1	1280.95	1349
328.15 K, x1 = 0.05002	1096.85	1515.2
328.15 K, x1 = 0.09974	1148.65	1470.6
328.15 K, x1 = 0.1499	1179.14	1440.5
328.15 K, x1 = 0.3013	1224.48	1389.8
328.15 K, x1 = 0.3994	1239.35	1372.1
328.15 K, x1 = 0.4973	1249.21	1359.9
328.15 K, x1 = 0.5999	1257.03	1350.1
328.15 K, x1 = 0.6988	1262.64	1343.2
328.15 K, x1 = 0.8953	1270.44	1332.5
328.15 K, x1 = 1	1273.16	1327.8
338.15 K, x1 = 0.05002	1089.38	1502.3
338.15 K, x1 = 0.09974	1140.47	1452.7
338.15 K, x1 = 0.1499	1170.71	1420.3
338.15 K, x1 = 0.3013	1216.08	1368.1
338.15 K, x1 = 0.3994	1231.09	1350.4
338.15 K, x1 = 0.4973	1241.08	1338.3
338.15 K, x1 = 0.5999	1249.02	1328.7
338.15 K, x1 = 0.6988	1254.72	1321.6
338.15 K, x1 = 0.8953	1262.66	1311.2
338.15 K, x1 = 1	1265.44	1307
